We go through six molecules from ChEMBL document CHEMBL1201862, “PubChem BioAssay data set” (2004).

For experiment [1], the target named is Voltage-gated inwardly rectifying potassium channel KCNH2 (Homo sapiens, UniProt Q12809). Conditions: Potency.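 Further: confirmatory quantitative high-throughput screen measuring inhibition of hERG channel activity.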
The target in experiment [2] is CAAX prenyl protease 2 (Homo sapiens, UniProt Q9Y256). The experiment in a line: inhibition of Ras-converting CAAX protease Rce1 – biochemical, yeast membranes, quenched-peptide fluorescence, cherry-pick, dose response (AID 588849).
CAAX prenyl protease 2 (Homo sapiens, UniProt Q9Y256), sequence (Q9Y256 whole entry): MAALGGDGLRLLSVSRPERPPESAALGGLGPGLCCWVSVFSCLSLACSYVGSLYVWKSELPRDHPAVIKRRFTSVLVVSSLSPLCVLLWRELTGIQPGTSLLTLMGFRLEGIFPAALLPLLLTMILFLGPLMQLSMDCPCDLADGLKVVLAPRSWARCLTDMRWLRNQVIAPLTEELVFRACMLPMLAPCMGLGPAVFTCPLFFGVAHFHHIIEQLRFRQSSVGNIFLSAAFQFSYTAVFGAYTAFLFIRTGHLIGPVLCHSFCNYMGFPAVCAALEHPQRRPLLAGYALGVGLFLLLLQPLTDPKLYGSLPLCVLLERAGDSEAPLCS
Experiment [3] is described as follows: toxicity toward cultured mammalian cells – cell-based, plate reader, cherry-pick samples, cytotoxicity control, dose response (AID 504397). In kind it is functional.
A short description of experiment [4]: viability loss of HMLE_sh_eGFP cells – cell-based, luminescence, counter-screen for HMLE_sh_ECad selective toxicity project, dose response (AID 463074).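 Further: HMLE human mammary epithelial cells expressing control shRNA against eGFP.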 In kind it is functional, Homo sapiens. (A counterscreen serves to expose hits that act by an unwanted route or on another target.)
The target of experiment [5] is T1, CAAX prenyl protease 2 (Saccharomyces cerevisiae S288c, UniProt Q03530).
T1 sequence (Q03530 whole entry): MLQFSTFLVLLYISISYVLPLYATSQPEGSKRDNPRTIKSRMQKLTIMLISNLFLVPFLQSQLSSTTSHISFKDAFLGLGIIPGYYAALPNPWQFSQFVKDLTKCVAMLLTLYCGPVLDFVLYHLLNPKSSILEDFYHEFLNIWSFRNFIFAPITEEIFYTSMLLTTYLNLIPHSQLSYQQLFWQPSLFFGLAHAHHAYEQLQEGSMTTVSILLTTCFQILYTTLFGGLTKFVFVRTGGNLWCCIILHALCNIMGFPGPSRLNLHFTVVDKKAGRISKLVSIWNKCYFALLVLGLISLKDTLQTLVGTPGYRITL
In kind it is biochemical.

A short description of experiment [6]: Luminescence Cell-Based Dose Retest to Confirm Inhibitors of Cancer Stem Cells. [Related pubchem assays (depositor defined):AID2717, AID2721]. In kind it is functional. Conditions: Homo sapiens.
Experiment [7] concerns Vero. The experiment in a line: Vero E6 cell cytotoxicity, dose response, cytotoxicity control (AID 540298). In kind it is functional. As to conditions: Chlorocebus sabaeus.
Experiment [8] has as its system MDCK. The experiment in a line: antiviral activity against H1N1 influenza, dose response, cell-based, strain KY180 (AID 540254). In kind it is functional. As to conditions: Canis lupus familiaris.
The target in experiment [9] is RNA-editing ligase 1, mitochondrial (Trypanosoma brucei brucei, UniProt P86926). The experiment in a line: inhibition of trypanosome RNA editing ligase – biochemical, fluorescence, Trypanosoma brucei, dose response (AID 1117295). The class given is functional.
RNA-editing ligase 1, mitochondrial, sequence (P86926 whole entry): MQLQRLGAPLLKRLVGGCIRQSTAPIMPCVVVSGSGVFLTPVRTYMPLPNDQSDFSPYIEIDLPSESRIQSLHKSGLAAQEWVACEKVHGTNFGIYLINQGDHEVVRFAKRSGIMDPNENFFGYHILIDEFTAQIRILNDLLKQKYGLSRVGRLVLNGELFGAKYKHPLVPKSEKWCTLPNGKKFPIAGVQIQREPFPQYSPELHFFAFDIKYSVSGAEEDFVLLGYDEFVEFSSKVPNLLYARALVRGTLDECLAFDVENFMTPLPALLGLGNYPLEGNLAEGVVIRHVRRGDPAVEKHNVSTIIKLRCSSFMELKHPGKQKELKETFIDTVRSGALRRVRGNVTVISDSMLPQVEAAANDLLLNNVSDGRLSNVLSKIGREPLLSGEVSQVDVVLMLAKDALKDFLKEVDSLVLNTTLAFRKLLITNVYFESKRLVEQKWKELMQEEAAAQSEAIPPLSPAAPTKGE
For experiment [10], the target named is Nonstructural protein 1 (Influenza A virus, UniProt Q194T2). The class given is functional, Influenza A virus (A/California/07/2009(H1N1)).
Nonstructural protein 1, sequence (Q194T2 whole entry): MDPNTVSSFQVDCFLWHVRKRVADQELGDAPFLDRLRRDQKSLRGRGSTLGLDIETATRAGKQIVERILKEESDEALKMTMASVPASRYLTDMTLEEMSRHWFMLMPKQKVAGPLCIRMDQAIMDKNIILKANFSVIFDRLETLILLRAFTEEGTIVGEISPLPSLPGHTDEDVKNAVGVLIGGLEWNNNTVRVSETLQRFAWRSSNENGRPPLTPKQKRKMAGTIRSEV
Experiment [11] deals with MDCK. The experiment in a line: MDCK cell cytotoxicity, dose response, cytotoxicity control (AID 540296). In kind it is functional. As to conditions: Canis lupus familiaris.
For experiment [12], the target named is Beta-adrenergic receptor kinase 1 (Homo sapiens, UniProt P25098). The experiment in a line: aptamer displacement from bead-bound GRK2 – biochemical, cherry pick 1, bead flow cytometry, dose response (AID 504500).
Beta-adrenergic receptor kinase 1, sequence (P25098 whole entry): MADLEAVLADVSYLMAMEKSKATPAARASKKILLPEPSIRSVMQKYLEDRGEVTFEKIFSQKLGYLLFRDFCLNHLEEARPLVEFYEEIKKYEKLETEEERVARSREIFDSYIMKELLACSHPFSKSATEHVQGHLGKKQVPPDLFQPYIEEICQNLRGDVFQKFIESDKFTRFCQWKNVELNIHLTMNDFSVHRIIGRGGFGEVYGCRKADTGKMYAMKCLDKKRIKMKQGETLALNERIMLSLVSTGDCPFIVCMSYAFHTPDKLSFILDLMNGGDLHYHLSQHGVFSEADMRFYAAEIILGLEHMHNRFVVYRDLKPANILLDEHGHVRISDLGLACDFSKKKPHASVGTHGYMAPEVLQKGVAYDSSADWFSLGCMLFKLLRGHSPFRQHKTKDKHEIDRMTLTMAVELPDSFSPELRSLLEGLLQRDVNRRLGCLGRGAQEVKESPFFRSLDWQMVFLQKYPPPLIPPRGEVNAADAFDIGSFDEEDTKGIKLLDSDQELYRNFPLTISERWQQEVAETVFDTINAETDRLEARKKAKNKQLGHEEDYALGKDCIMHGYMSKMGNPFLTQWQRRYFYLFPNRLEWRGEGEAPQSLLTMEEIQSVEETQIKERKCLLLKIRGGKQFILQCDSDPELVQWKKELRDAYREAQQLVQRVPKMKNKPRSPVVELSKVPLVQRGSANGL
Experiment [13] concerns the target T2, Small ubiquitin-related modifier 1 (Homo sapiens, UniProt P63165). The experiment in a line: SUMO1 protein-protein binding blockers, potency – biochemical, FRET, dose response (AID 624383). As to conditions: read-out: IC50_Mean. In kind it is functional.
Experiment [14] addresses DNA dC->dU-editing enzyme APOBEC-3A (Homo sapiens, UniProt P31941). The experiment in a line: A3A deaminase inhibition for selectivity – biochemical, dose response (AID 504722). The class given is functional.
The target in experiment [15] is DNA dC->dU-editing enzyme APOBEC-3G (Homo sapiens, UniProt Q9HC16). The experiment in a line: Dose Response confirmation of small molecule APOBEC3G DNA Deaminase Inhibitors via a fluorescence-based single-stranded DNA deaminase assay. [Related pubchem assays (depositor defined):AID493012, AID493028]. In kind it is functional.
DNA dC->dU-editing enzyme APOBEC-3G, sequence (Q9HC16 whole entry, the tested form may be a part): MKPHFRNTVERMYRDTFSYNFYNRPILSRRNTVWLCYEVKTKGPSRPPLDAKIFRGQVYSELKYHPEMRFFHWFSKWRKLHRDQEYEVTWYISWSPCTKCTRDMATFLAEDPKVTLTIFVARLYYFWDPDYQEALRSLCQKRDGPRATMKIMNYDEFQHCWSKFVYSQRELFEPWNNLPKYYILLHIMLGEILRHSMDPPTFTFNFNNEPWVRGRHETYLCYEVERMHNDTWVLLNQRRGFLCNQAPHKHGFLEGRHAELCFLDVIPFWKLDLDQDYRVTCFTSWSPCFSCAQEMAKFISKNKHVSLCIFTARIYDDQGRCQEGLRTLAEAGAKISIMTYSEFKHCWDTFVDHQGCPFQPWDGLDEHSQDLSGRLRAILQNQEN
Experiment [16] has as its target T3, Carboxy-terminal domain RNA polymerase II polypeptide A small phosphatase 1 (Homo sapiens, UniProt Q9GZU7).
T3 sequence (Q9GZU7 whole entry): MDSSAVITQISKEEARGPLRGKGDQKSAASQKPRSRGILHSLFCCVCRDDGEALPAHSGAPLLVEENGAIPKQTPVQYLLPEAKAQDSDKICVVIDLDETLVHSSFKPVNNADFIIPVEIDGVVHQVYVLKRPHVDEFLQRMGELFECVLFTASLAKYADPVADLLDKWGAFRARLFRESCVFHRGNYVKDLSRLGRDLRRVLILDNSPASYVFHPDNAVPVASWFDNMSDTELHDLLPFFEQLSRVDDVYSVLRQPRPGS
The experiment in a line: CTDSP1 inhibitors, concentration-response, biochemical, absorbance readout, ultra-high-throughput screen actives (AID 540297). In kind it is functional.

The target in experiment [17] is Induced myeloid leukemia cell differentiation protein Mcl-1 (Homo sapiens, UniProt Q07820). The class given is functional.
Induced myeloid leukemia cell differentiation protein Mcl-1, sequence (Q07820 whole entry): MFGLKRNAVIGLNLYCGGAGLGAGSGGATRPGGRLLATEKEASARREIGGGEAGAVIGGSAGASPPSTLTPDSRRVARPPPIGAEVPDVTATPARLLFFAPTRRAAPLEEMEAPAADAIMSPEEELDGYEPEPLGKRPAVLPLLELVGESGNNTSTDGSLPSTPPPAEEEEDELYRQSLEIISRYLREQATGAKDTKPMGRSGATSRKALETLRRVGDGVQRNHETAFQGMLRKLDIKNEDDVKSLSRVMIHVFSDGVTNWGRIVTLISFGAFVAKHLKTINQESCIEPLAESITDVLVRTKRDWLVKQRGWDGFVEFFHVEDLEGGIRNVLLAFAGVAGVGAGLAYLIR
For experiment [18], the target named is T4, Apoptotic protease-activating factor 1 (Homo sapiens, UniProt O14727).
T4 sequence (O14727 whole entry): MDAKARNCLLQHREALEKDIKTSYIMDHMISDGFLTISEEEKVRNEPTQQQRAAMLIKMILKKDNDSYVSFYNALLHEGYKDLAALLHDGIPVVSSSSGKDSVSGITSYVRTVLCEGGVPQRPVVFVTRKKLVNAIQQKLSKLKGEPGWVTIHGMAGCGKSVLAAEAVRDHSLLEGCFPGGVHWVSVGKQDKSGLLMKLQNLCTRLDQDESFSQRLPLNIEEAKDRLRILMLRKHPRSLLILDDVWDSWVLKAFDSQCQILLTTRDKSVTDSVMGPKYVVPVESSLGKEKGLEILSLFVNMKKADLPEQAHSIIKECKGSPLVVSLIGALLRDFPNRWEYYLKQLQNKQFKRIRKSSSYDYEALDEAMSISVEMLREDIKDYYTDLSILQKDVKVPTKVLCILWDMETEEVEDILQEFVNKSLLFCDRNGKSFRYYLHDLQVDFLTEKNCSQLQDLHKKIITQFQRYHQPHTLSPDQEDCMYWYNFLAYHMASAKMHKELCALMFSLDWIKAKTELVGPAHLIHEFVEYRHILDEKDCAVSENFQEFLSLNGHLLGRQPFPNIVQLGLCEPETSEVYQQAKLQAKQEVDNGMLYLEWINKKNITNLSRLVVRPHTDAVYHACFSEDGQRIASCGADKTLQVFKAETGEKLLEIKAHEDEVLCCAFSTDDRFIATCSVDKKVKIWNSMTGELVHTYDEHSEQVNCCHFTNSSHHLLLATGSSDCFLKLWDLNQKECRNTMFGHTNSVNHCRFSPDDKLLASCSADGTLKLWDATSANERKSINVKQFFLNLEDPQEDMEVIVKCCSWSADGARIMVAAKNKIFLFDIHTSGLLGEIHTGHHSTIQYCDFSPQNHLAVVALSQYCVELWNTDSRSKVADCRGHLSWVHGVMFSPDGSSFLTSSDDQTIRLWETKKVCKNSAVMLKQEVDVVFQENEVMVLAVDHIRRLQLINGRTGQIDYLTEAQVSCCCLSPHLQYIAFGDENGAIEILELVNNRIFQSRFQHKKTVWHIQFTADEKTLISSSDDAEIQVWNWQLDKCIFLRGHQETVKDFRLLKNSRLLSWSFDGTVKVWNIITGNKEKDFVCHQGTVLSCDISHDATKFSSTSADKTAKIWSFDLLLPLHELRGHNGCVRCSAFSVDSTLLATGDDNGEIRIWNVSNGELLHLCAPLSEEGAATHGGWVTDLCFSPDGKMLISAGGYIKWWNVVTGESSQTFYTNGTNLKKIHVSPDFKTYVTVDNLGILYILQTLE
The experiment in a line: activation of Apaf-1 mediated apoptosis – fluorescent, uHTS hits, dose response (AID 588554). The class given is functional.

In experiment [19] the target is T2, Small ubiquitin-related modifier 1. The experiment in a line: SUMO1 protein interaction blockers, potency – biochemical, fluorescence polarization, uHTS hits, dose response (AID 624382). In kind it is functional. Conditions: read-out: IC50_Mean. (In fluorescence polarisation assays a small probe gives low polarisation when free and higher when bound to something large.)

Experiment [20] is described as follows: Luminescence Cell-Based Dose Response Follow up to Identify Inhibitors of Platelet Dense Granule Release. [Related pubchem assays (depositor defined):AID1663, AID1678, AID2398]. The class given is functional.
A short description of experiment [21]: blockers of SFLLRN-triggered platelet ATP secretion – cell-based, human platelets, luminescence, dry powder, dose response (AID 493100). The class given is functional.
Experiment [22] deals with A-375. The experiment in a line: MITF: Counter assay: A375 proliferation Measured in Cell-Based System Using Plate Reader - 2084-03_Inhibitor_Dose_DryPowder_Activity. [Related pubchem assays (depositor defined):AID488944]. In kind it is functional. Conditions: Homo sapiens.
Experiment [23] relates to A-375. The experiment in a line: proliferation inhibition in MITF-low A375 cells – cell-based, cherry-pick samples, set 2, counter-screen for MITF modulator project, dose response (AID 540335). The class given is functional. Conditions: Homo sapiens.
In experiment [24] the target is T5, Microphthalmia-associated transcription factor (Homo sapiens, UniProt O75030).
T5 sequence (O75030 whole entry): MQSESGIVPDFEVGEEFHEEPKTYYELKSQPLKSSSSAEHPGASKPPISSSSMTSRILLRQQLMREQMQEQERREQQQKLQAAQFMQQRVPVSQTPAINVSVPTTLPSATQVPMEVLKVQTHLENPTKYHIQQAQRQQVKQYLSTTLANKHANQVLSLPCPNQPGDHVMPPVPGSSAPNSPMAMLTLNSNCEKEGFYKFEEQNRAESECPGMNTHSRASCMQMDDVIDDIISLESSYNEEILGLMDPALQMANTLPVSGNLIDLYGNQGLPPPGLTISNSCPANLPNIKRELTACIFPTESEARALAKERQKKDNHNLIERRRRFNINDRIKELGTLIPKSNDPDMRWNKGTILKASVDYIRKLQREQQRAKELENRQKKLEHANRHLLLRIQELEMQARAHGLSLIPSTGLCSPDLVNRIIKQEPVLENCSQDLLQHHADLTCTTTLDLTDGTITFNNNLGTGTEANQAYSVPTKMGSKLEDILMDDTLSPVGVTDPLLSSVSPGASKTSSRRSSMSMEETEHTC
The experiment in a line: reducers of TRPM1 reporter luminescence, concentration series – cell-based, SK-MEL-5, cherry-picked, set 3, MITF inhibitor project, dose response (AID 493073).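 Further: SK-MEL-5 melanoma cells with luciferase driven by the MITF target TRPM1 promoter.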 The class given is functional.

The source made the active and inactive calls.

T2 sequence (P63165 whole entry): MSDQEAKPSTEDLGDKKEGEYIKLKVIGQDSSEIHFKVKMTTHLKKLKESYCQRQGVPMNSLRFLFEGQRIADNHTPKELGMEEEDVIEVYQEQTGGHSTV
DNA dC->dU-editing enzyme APOBEC-3A, sequence (P31941 whole entry): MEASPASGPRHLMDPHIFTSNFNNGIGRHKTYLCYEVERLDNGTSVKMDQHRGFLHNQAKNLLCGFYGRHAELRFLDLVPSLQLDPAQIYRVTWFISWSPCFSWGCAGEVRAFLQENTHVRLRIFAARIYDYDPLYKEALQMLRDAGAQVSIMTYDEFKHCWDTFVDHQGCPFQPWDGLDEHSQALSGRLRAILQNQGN
Voltage-gated inwardly rectifying potassium channel KCNH2, sequence (Q12809 whole entry): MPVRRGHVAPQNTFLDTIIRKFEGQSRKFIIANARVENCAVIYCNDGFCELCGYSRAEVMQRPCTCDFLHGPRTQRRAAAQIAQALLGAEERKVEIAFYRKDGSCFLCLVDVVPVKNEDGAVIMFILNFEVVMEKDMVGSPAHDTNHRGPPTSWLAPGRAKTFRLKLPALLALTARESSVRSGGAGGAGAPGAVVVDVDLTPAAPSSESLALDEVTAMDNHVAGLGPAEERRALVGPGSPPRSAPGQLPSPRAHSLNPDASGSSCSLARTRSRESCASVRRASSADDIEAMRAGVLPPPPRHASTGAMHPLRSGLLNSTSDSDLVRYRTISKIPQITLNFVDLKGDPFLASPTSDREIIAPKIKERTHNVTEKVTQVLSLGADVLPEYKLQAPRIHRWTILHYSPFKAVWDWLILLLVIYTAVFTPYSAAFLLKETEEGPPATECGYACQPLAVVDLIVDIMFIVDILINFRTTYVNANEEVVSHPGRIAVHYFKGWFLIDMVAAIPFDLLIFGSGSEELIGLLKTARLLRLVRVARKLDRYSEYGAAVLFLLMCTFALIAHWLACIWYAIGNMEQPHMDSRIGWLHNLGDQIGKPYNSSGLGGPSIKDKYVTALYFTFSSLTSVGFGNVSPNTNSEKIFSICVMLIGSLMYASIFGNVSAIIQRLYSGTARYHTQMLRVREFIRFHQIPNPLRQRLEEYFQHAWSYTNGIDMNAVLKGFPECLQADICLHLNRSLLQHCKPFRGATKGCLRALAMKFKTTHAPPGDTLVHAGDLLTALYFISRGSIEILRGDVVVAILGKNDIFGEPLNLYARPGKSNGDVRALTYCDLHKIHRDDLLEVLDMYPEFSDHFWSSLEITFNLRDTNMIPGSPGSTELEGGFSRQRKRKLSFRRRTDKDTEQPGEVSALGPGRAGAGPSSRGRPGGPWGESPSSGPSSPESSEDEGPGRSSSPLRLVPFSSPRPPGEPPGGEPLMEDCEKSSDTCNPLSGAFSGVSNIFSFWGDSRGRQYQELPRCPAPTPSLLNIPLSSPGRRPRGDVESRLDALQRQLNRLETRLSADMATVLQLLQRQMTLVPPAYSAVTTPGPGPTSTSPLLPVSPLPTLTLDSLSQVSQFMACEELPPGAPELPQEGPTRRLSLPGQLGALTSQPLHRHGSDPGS

On to `N[C@@H](Cc1ccc(F)cc1)C(=O)O`, for which the AC50 (as a rule, the concentration giving half of the maximal activity seen) in experiment [1] was 35.5 µM (inconclusive).

With `Cc1ccc(OCCN2C(=O)C(=O)c3cc(C)ccc32)cc1`, the AC50 is 12.8 µM (active) in experiment [2]; 4.64 µM (active) in experiment [3]; 145 µM (active) in experiment [4]; 1.6 µM (active) in experiment [5]; 24.2 µM (active) in experiment [6].

As to `CCN(c1ccccc1)S(=O)(=O)c1ccc(C(=O)N(CCCN(C)C)c2nc3c(C)cccc3s2)cc1`, the CC50 – broadly, the concentration that lowers cell viability or growth by half – is 16 µM (active) in [7] and 10.8 µM (active) in [11]. In addition, the IC50 is > 100 µM (active) in experiment [8], > 96.6 µM (inactive) in experiment [9] and > 100 µM (active) in [10].

For `C=C(C)C(=O)Nc1cccc(C2=NOC3(C2)C[C@H](C(N)=O)N(C(=O)/C=C/C)C3)c1` (some centres undefined), the values for the EC50 in [12] and in experiment [18] were 21.3 µM (inactive) and 2.71 µM (active), respectively. For the same molecule, the IC50 in experiment [13] was 1.93 µM (active); in [14], > 100 µM (inactive); in [15], 6.14 µM (active); in experiment [16], 1.61 µM (active); in experiment [17] it was 3.48 µM (active); in experiment [19] it was > 66.6 µM (inactive).

`CCCCC(=O)N/N=C(\C)c1ccc(NC(=O)C(F)(F)F)cc1`: in experiment [20], the EC50 (in general, the midpoint of the concentration-response curve) is 5.49 µM (active). In addition, the AC50 in [21] was 41.3 µM (active).

In the case of `Cc1ccc([N+](=O)[O-])cc1N1C(=O)CS/C1=N\NC(=O)c1cccnc1`, the AC50 is > 35 µM (active) in experiment [22], > 35 µM (active) in experiment [23] and 48.7 µM (active) in [24].
